Assay [1] has as its target T1, CphA (Aeromonas hydrophila, UniProt P26918).
T1 construct: made in house; host or cells: E. coli
Nature of the assay: β-lactamase inhibition, meropenem hydrolysis UV assay. It counts as biochemical. The conditions noted are these: subclass B2. The procedure:
(§1) Recombinant MBLs and SBLs were produced in E. coli and purified following reported procedures^1-6 and were all >95% pure (as judged by SDS-PAGE and MS analyses). Note the TEM enzyme used in this study is named TEM-116^7, in previous studies this has been assigned incorrectly as TEM-1^3, 5, 8-14. […] Activity was assayed by monitoring the release of a fluorophore following the enzymatic breakdown of the cephalosporin FC-5^15, with the exception of the class B2 MBLs, where the hydrolysis of meropenem was used as a readout^16. FC-5 assays were conducted in clear bottomed 384 black well microplates (Greiner) and the initial rate of reaction was assessed by monitoring the fluorescence intensity (λex = 380 nm and λem = 460 nm) using a PHERAstar FS (BMG LabTech) plate reader^15. For the B2 MBLs, assays were carried out in 96 well UV star microplates (Greiner) and UV absorbance at λ = 300 nm monitored. Initial rates of reaction were determined and dose-response analyses conducted in GraphPad Prism^15.

In the next assay the target is cephalosporinase P99. Also noted: method as in PMID 25782055. The conditions noted are these: read-out: Vaborbactam Ki; P99, nitrocefin assay; cited from earlier work.
The next assay has as its target T2, OXA-48 (Klebsiella pneumoniae, UniProt Q6XEC0).
T2 construct: made in house; host or cells: E. coli
Nature of the assay: β-lactamase inhibition, FC-5 fluorogenic cephalosporin assay. It counts as biochemical. The conditions noted are these: Vaborbactam IC50, OXA-48, class D, 100 mM NaHCO3.

The target of a further assay is CMY-2. Also noted: method as in PMID 25782055. The following applies: read-out: Vaborbactam Ki; CMY-2, nitrocefin assay; cited from earlier work.
A further assay addresses SHV-12. The following applies: read-out: Vaborbactam Ki; SHV-12, nitrocefin assay; cited from earlier work.
For assay [2], the target named is CTX-M15. Further details: method as in PMID 25782055. The following applies: read-out: Vaborbactam Ki; CTX-M15, nitrocefin assay; cited from earlier work.
The target of another assay is T3, KPC-2 (Klebsiella pneumoniae, UniProt Q9F663).
T3 construct: made in house; host or cells: E. coli
The assay can be described thus: β-lactamase inhibition, FC-5 fluorogenic cephalosporin assay. The assay is classed as biochemical. The following applies: KPC-2, class A. The method, then:
as §1

The target in assay [3] is T4, AmpC (Pseudomonas aeruginosa, UniProt P24735).
T4 construct: made in house; host or cells: E. coli
Described as above. The assay is classed as biochemical. The following applies: class C. The procedure:
as §1

Assay [4] has as its target T5, L1 (Stenotrophomonas maltophilia, UniProt P52700).
T5 construct: made in house; host or cells: E. coli
The assay is described as above. It counts as biochemical. The conditions noted are these: L1, subclass B3. The method, then: as §1

For another assay, the target named is T6, NDM-1 (Klebsiella pneumoniae, UniProt C7C422).
T6 construct: made in house; host or cells: E. coli
The description is as above. The conditions noted are these: NDM-1, subclass B1. It counts as biochemical. The method, then:
as §1

The target in a further assay is T7, OXA-10 (Pseudomonas aeruginosa, UniProt P14489).
T7 construct: made in house; host or cells: E. coli
Described as above. The assay is classed as biochemical. The conditions noted are these: for IC50: OXA-10, class D. The procedure:
as §1

Another assay concerns the target T8, VIM-2 (Escherichia coli, UniProt Q5U7L7).
T8 construct: made in house; host or cells: E. coli
Described as above. It counts as biochemical. The conditions noted are these: VIM-2, subclass B1. The procedure:
as §1

The target in the next assay is T9, VIM-1 (Pseudomonas aeruginosa, UniProt A0A0F7KYQ8).
T9 construct: made in house; host or cells: E. coli
The assay is described as above. The conditions noted are these: VIM-1, subclass B1. The assay is classed as biochemical. The method, then: as §1

Another assay has as its target T10, IMP-1 (Serratia marcescens, UniProt P52699).
T10 construct: made in house; host or cells: E. coli
Described as above. The assay is classed as biochemical. The following applies: IMP-1, subclass B1. The procedure: as §1

Another assay addresses KPC-2 carbapenemase. Further details: method as in PMID 25782055. The conditions noted are these: read-out: Vaborbactam Ki; KPC-2, nitrocefin assay; cited from earlier work.
The target in assay [5] is T1, CphA. The conditions noted are these: cited from earlier work.
Assay [6] deals with CTX-M15. Also noted: method as in PMID 28115348. The conditions noted are these: read-out: Cyclic Boronate (CB2) IC50; cited from earlier work.
In assay [7] the target is T4, AmpC. The conditions noted are these: read-out: Cyclic Boronate (CB2) IC50; cited from earlier work.
Assay [8] concerns the target T5, L1. The following applies: cited from earlier work.
In assay [9] the test system is class B MBLs (IMP-1, VIM-1, VIM-2, NDM-1 and L1). Further details: method as in PMID 27401561. The conditions noted are these: across the same range of inhibitor concentrations as vaborbactam; cited from earlier work.

Data on three compounds can be found in paper PMC6593178 (Bioorganic & Medicinal Chemistry Letters, 2019).

Structures are written as SMILES. “Also recorded” adds a separate entry of the source. Like-named read-outs stand apart in the source and are kept apart here.

T7 sequence (P14489 20-266, species assumed): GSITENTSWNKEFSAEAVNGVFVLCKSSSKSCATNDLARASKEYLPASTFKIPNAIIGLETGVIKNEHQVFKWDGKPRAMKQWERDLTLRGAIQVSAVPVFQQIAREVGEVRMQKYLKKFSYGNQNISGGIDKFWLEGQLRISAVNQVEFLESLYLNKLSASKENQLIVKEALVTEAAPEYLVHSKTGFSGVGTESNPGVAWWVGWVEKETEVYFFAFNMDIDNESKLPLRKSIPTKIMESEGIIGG
T1 sequence (P26918 28-254): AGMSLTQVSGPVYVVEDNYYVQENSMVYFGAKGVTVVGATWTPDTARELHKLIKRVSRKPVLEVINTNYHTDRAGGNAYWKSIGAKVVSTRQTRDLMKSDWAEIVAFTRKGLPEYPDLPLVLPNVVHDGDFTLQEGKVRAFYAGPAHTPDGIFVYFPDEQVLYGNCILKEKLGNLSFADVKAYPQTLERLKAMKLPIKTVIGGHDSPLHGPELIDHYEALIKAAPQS
T5 sequence (P52700 34-290): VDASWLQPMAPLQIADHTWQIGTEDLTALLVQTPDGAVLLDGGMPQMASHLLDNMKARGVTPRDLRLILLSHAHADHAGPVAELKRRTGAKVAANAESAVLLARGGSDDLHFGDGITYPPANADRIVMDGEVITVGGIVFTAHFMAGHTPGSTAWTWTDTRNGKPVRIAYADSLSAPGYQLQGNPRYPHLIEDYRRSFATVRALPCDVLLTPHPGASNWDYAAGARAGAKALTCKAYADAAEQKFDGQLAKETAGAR
T4 sequence (P24735 27-397): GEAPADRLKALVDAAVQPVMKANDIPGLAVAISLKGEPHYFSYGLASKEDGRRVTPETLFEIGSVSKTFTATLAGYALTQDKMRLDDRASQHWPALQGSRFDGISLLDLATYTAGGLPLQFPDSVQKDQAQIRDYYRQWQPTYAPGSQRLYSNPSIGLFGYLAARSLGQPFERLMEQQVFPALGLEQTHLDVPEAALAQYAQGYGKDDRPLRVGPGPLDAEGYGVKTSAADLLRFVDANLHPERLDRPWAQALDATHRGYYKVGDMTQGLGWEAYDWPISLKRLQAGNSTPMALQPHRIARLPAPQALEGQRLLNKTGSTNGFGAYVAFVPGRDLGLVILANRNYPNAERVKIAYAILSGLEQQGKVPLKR
T2 sequence (Q6XEC0 23-265, looked up, species assumed): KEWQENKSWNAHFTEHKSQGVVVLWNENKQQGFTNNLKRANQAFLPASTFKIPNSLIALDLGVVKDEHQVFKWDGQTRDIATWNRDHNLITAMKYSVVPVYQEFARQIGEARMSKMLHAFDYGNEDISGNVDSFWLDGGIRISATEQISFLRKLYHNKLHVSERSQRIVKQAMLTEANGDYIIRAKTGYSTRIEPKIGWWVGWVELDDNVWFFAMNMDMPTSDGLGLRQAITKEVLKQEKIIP
T3 sequence (Q9F663 25-293, looked up, species assumed): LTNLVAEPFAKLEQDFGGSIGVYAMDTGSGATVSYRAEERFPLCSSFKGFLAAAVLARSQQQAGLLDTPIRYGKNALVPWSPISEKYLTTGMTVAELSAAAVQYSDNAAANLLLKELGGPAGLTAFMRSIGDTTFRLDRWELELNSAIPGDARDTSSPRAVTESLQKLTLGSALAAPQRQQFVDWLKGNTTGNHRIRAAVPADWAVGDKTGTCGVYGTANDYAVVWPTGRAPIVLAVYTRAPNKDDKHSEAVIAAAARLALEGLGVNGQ
T6 sequence (C7C422 29-270, looked up, species assumed): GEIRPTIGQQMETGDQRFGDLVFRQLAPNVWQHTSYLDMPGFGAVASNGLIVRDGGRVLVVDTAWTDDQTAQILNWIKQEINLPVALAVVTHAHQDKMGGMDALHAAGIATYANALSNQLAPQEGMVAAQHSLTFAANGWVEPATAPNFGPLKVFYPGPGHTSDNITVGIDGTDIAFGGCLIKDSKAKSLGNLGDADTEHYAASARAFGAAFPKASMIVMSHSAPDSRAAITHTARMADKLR
T10 sequence (P52699 19-246, looked up, species assumed): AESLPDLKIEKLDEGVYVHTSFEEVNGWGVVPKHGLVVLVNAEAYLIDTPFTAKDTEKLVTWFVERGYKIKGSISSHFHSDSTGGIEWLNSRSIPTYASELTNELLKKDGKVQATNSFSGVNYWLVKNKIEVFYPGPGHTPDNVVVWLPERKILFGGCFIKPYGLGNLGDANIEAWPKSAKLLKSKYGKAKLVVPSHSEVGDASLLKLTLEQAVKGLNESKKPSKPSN

Consider `O=C(O)C[C@@H]1CC[C@H](NC(=O)Cc2cccs2)B(O)O1` [Vaborbactam, vaborbactam], for which the concentration for half-maximal inhibition (IC50) against CphA [1] is 631 µM; at OXA-48 it was 32 µM; at KPC-2 it was 0.09 µM; on AmpC [3], 5 µM; against L1 [4] it was 336 µM; against NDM-1 it was 631 µM. Besides, the IC50 is above 400 µM against OXA-10 (without NaHCO3); above 400 µM at OXA-10 (read-out: Vaborbactam IC50, 100 mM NaHCO3); 316 µM on VIM-2; 398 µM on VIM-1; 126 µM on IMP-1. The Ki on cephalosporinase P99 is 0.053 µM; at CMY-2 it was 0.099 µM; at SHV-12, 0.029 µM; at CTX-M15 [2] it was 0.044 µM; at KPC-2 carbapenemase it was 0.069 µM. In addition, the inhibition at 400 µM at OXA-10 (read-out: inhibition of OXA-10 at the highest tested concentration) was below 50%.
In the case of `NCc1ccc(C(=O)N[C@H]2Cc3cccc(C(=O)O)c3OB2O)cc1` [CB2], the “inhibitory activity against B2 CphA” value on CphA [5] (CphA (mono Zn(II))) is recorded as “do not exhibit inhibitory activity”. Moreover, the half-inhibitory concentration (IC50) on CphA [5] (read-out: Cyclic Boronate (CB2) IC50, CphA) is above 100 µM; with CTX-M15 [6], 0.013 µM; at AmpC [7], 0.12 µM. Besides, the “Cyclic Boronate (CB2) IC50” value at L1 [8] was “do not exhibit inhibitory activity; also recorded: Not inhibited[19]”.
On to `NC(=O)[C@@H]1CC[C@@H]2CN1C(=O)N2OS(=O)(=O)O` [avibactam], for which the “inhibition of MBLs” value in [9] is “does not show any inhibition”.

As a reminder, the IC50 is the concentration needed to halve the response being measured. As usually defined, the Ki is a measure of affinity in units of concentration, obtained from inhibition or displacement.
